These are literature values, as cited in patent publication US7407949B2, “Benzamide derivatives as oxytocin agonists and vasopressin antagonists” (priority 2003, dated 2008).

Structures are written as SMILES.

The target in this data set is T1, V1a vasopressin receptor (Homo sapiens, UniProt P37288).
T1 construct: host or cells: patients (in vivo clinical study)
Conditions: dysmenorrhea patients, compared to placebo.

T1 sequence (P37288 whole entry): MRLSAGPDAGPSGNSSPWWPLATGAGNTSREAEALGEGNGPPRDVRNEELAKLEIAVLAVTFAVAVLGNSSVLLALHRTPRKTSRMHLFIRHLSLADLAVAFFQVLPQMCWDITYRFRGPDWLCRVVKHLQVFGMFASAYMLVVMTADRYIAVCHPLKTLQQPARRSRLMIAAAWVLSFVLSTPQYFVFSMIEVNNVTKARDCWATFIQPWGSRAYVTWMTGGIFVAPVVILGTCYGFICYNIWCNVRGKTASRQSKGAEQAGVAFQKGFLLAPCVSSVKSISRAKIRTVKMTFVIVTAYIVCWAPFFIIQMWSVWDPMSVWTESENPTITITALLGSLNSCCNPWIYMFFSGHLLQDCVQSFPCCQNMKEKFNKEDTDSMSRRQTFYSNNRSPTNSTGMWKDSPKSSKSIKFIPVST

In the case of `COc1ccc(S(=O)(=O)N2c3ccc(Cl)cc3[C@](O)(c3ccccc3Cl)[C@@H]2C(=O)N2CCC[C@H]2C(N)=O)cc1OC` [SR49059], the “amount of additional pain-killer taken” value is on record as “dose-related decrease in the amount of additional pain-killer taken” and the pain result is “dose-related decrease in pain”.
